How the values were obtained:
[1] = molecular target: T1, Alpha-1A adrenergic receptor (Homo sapiens, UniProt P35348); format: functional, cell-based
T1 sequence (P35348 whole entry): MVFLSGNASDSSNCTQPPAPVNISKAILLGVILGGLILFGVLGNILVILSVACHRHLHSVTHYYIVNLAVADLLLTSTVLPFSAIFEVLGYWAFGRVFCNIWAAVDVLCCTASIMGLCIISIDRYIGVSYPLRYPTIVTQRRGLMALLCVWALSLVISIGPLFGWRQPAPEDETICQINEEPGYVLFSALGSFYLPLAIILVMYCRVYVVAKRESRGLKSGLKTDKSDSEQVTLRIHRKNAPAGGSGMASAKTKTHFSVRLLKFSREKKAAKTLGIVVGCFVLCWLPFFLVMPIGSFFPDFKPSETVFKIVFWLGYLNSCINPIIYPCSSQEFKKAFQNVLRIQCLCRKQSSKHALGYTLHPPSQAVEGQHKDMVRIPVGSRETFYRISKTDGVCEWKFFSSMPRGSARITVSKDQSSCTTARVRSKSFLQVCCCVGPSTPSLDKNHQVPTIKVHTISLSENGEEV

Vasopressin V2 receptor = Vasopressin V2 receptor (Homo sapiens, UniProt P30518)
[2] = molecular target: Voltage-dependent L-type calcium channel subunit alpha-1C (Rattus norvegicus, UniProt P22002); format: functional
Sequence of Voltage-dependent L-type calcium channel subunit alpha-1C (P22002 whole entry): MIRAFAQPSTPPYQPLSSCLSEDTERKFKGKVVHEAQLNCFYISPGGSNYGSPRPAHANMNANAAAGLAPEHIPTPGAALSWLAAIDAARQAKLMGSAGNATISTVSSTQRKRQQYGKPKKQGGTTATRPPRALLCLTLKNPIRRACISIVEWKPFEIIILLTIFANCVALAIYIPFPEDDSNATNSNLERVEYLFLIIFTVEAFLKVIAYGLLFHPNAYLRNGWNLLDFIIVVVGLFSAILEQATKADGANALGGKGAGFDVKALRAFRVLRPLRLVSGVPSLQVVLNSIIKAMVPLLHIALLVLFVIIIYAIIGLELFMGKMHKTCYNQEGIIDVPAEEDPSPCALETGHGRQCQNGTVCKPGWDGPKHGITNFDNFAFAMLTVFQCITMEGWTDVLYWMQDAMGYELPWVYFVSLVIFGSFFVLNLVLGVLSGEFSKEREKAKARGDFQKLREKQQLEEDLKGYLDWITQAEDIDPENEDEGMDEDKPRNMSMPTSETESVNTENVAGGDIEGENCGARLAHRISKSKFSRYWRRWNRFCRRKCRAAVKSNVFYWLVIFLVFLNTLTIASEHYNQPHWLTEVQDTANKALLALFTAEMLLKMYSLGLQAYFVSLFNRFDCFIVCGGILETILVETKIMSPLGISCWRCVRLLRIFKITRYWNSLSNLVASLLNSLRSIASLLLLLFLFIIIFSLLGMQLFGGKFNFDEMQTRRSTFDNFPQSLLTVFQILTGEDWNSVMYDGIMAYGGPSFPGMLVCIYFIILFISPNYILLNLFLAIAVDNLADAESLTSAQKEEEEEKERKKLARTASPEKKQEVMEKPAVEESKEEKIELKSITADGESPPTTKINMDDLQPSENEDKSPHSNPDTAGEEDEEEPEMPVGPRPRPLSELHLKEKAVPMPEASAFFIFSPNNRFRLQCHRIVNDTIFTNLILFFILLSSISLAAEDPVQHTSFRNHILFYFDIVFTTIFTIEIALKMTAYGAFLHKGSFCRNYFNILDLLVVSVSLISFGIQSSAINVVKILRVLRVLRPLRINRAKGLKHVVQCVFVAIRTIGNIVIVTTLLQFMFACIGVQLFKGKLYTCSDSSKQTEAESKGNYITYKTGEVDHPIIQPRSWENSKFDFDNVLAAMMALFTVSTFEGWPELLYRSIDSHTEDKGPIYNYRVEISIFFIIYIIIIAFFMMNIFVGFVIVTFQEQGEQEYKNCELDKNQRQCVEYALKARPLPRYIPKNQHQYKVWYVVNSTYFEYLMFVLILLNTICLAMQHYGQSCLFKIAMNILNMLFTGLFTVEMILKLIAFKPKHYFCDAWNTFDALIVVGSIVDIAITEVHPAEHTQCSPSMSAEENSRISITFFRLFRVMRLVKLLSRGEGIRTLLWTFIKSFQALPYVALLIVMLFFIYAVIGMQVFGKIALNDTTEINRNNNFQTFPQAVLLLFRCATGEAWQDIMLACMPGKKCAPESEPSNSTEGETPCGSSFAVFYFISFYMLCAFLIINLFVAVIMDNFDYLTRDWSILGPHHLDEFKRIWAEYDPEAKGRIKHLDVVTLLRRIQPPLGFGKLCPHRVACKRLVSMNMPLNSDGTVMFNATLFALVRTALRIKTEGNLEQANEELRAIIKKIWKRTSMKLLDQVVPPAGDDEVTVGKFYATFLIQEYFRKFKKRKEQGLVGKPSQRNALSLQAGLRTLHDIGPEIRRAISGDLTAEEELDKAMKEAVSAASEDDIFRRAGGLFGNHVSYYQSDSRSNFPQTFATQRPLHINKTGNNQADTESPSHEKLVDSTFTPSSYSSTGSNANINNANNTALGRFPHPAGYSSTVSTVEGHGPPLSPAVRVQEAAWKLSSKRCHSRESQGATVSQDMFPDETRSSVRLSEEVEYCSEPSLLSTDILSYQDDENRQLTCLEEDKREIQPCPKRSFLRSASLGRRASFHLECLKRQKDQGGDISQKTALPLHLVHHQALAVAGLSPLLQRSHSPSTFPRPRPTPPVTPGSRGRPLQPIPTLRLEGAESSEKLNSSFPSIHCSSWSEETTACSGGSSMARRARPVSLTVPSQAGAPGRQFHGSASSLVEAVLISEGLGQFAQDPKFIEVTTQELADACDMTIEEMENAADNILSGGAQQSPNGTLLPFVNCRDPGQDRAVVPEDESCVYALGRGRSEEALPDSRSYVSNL

[3] = molecular target: T2, Muscarinic acetylcholine receptor M1 (Homo sapiens, UniProt P11229); format: functional
T2 sequence (P11229 whole entry): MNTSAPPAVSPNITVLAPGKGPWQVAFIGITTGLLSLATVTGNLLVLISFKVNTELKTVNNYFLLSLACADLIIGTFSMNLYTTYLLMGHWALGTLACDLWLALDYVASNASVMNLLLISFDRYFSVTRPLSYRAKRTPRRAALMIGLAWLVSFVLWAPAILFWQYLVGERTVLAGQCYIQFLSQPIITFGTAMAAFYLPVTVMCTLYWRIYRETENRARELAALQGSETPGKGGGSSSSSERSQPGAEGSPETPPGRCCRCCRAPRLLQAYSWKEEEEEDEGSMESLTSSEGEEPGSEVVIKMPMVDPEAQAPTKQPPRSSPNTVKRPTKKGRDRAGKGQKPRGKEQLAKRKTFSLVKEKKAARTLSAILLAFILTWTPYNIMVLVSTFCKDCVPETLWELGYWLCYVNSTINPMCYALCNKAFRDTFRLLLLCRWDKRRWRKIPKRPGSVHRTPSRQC

Cannabinoid receptor 1 = Cannabinoid receptor 1 (Homo sapiens, UniProt P21554)
Sequence of Cannabinoid receptor 1 (P21554 whole entry): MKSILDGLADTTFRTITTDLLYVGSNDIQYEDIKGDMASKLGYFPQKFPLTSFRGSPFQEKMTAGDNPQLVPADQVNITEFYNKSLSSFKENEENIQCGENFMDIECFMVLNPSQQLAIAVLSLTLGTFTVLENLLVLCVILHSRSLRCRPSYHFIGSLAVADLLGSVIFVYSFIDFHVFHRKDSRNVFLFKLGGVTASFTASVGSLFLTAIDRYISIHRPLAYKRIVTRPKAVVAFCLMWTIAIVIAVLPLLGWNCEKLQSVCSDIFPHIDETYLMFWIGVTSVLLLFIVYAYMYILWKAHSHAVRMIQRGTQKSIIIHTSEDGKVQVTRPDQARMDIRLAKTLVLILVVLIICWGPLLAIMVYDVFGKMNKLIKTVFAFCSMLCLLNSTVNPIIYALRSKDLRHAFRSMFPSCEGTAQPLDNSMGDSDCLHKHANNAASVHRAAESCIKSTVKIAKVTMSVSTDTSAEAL

[4] = molecular target: Gamma-aminobutyric acid receptor subunit alpha-1 (Rattus norvegicus, UniProt P62813)
[5] = molecular target: T3, 5-hydroxytryptamine receptor 2A (Homo sapiens, UniProt P28223); format: functional, cell-based
T3 sequence (P28223 whole entry): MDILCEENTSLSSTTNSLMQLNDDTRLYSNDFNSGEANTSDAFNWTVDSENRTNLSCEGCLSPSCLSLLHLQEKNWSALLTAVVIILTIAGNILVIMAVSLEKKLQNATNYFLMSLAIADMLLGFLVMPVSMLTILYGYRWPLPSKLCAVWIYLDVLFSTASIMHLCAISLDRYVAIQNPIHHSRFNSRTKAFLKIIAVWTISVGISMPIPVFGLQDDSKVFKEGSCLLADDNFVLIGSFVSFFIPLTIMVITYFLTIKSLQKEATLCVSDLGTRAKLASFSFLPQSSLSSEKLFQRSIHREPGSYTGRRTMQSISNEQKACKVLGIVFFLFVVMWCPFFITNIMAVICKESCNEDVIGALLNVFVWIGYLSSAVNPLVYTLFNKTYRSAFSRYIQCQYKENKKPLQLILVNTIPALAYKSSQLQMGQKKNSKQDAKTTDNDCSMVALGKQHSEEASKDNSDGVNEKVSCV

[6] = molecular target: T3, 5-hydroxytryptamine receptor 2A; format: functional, cell-based; remark: listed apart in the source
[7] = molecular target: 5-hydroxytryptamine receptor 2B (Homo sapiens, UniProt P41595); format: functional, cell-based
Thromboxane A2 receptor [8] = molecular target: T4, Thromboxane A2 receptor (Homo sapiens, UniProt P21731)
T4 sequence (P21731 whole entry): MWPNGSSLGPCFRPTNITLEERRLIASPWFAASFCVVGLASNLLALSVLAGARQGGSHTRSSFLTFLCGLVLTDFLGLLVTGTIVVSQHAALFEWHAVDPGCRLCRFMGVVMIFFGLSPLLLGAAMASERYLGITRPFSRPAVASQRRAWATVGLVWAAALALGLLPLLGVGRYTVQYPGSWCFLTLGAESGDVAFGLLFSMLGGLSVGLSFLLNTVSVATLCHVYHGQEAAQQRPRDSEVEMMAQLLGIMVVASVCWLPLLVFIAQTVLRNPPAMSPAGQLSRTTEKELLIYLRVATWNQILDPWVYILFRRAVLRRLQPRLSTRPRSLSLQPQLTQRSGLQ

Histamine H3 receptor [9] = molecular target: T5, Histamine H3 receptor (Homo sapiens, UniProt Q9Y5N1)
T5 sequence (Q9Y5N1 whole entry): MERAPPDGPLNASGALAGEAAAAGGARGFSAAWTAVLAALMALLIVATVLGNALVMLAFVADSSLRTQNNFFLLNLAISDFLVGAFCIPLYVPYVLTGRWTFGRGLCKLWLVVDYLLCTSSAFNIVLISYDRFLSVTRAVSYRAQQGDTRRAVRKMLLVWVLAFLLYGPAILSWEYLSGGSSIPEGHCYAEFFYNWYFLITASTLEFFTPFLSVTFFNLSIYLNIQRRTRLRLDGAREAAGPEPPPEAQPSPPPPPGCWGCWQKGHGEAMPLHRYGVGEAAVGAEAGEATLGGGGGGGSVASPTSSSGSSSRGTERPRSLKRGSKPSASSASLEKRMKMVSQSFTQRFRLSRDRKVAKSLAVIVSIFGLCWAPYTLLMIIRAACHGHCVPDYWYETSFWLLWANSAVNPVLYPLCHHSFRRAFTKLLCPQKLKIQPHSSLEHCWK

[10] = molecular target: T1, Alpha-1A adrenergic receptor; format: functional, cell-based; remark: listed apart in the source
[11] = molecular target: T1, Alpha-1A adrenergic receptor; format: functional, cell-based; remark: listed apart in the source
[12] = molecular target: T6, Alpha-2A adrenergic receptor (Homo sapiens, UniProt P08913)
T6 sequence (P08913 whole entry): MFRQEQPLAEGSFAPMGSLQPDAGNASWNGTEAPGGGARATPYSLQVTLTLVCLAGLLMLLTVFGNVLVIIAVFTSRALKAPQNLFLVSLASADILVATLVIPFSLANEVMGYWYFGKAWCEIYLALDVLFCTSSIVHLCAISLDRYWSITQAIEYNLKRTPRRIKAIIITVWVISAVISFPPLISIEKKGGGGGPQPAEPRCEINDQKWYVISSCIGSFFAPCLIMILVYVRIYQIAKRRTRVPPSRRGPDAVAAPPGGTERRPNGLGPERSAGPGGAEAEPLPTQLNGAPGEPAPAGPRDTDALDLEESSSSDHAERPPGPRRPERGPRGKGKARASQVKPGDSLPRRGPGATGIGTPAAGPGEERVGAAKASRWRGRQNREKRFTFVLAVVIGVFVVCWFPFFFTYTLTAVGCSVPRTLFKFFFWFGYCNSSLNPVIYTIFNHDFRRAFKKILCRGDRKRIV

D(1A) dopamine receptor = D(1A) dopamine receptor (Homo sapiens, UniProt P21728)
Sequence of D(1A) dopamine receptor (P21728 whole entry): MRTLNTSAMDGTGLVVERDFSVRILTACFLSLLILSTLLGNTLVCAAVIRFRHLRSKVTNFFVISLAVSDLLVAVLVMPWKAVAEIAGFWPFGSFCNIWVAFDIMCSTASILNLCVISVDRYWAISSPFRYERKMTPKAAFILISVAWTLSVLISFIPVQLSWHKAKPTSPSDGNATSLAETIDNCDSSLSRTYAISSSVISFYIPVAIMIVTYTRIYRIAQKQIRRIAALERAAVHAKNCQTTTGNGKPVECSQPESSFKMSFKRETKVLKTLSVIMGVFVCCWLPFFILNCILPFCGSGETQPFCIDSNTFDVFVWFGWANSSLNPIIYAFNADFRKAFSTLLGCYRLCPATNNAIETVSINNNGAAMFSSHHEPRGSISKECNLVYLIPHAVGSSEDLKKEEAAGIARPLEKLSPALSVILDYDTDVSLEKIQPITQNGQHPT

Prothrombin = Prothrombin (Homo sapiens, UniProt P00734); format: functional
Histamine H3 receptor [13] = molecular target: T5, Histamine H3 receptor; remark: listed apart in the source
Mu-type opioid receptor = Mu-type opioid receptor (Homo sapiens, UniProt P35372)
[14] = molecular target: 3',5'-cyclic-AMP phosphodiesterase 4A (Homo sapiens, UniProt P27815); format: functional
Sequence of 3',5'-cyclic-AMP phosphodiesterase 4A (P27815 whole entry): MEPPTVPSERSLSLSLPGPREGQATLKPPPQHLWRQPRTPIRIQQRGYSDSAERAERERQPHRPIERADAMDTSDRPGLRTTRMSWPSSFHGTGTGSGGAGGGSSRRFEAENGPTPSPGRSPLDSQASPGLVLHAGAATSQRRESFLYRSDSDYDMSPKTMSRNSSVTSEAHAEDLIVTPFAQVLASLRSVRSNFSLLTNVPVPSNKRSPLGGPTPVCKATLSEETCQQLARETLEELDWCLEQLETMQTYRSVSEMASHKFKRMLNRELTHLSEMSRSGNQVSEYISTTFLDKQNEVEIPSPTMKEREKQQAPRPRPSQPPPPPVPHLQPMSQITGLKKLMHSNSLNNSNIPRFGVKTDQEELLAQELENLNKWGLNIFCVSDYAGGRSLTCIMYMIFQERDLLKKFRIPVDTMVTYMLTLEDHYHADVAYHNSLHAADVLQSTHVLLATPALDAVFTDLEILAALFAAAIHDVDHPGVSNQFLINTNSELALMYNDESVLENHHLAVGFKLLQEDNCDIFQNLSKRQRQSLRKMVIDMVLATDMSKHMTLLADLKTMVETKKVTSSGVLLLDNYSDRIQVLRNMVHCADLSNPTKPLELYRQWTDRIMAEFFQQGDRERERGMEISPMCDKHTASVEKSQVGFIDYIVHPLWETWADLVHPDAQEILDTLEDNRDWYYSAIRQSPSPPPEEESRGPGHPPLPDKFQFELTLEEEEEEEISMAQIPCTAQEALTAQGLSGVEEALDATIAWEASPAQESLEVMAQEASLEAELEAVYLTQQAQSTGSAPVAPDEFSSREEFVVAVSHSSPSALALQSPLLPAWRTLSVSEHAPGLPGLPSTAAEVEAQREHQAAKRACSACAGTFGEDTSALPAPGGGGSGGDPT

Thromboxane A2 receptor [15] = molecular target: T4, Thromboxane A2 receptor; format: functional, cell-based
Thromboxane A2 receptor [16] = molecular target: T4, Thromboxane A2 receptor; format: functional, cell-based; remark: listed apart in the source
[17] = molecular target: Sodium-dependent serotonin transporter (Homo sapiens, UniProt P31645)
Note: assay procedure not described here.

Row | Compound | AC50 [1] [µM] | AC50 (Vasopressin V2 receptor) [µM] | AC50 [2] [µM] | AC50 [3] [µM] | AC50 (Cannabinoid receptor 1) [µM] | AC50 [4] [µM] | AC50 [5] [µM] | AC50 [6] [µM] | AC50 [7] [µM] | AC50 (Thromboxane A2 receptor [8]) [µM] | AC50 (Histamine H3 receptor [9]) [µM] | AC50 [10] [µM] | AC50 [11] [µM] | AC50 [12] [µM] | AC50 (D(1A) dopamine receptor) [µM] | AC50 (Prothrombin) [µM] | AC50 (Histamine H3 receptor [13]) [µM] | AC50 (Mu-type opioid receptor) [µM] | AC50 [14] [µM] | AC50 (Thromboxane A2 receptor [15]) [µM] | further results
1 | O=C(O[C@H]1C[C@H]2CC[C@@H](C1)[N+]21CCCC1)C(O)(c1ccccc1)c1ccccc1 [TROSPIUM] | > 30 | > 30 | > 30 | 0.028 | > 30 | > 30 | > 30 | > 30 | > 30 | > 30 | > 30 |  |  |  |  |  |  |  |  |  | 
2 | Cn1nnc2c(C(N)=O)ncn2c1=O [TEMOZOLOMIDE] | > 30 | > 30 | > 10 | > 30 | > 10 | > 10 | > 30 | > 30 | > 30 | > 30 | > 30 |  |  |  |  |  |  |  |  |  | 
3 | CC[C@H]1OC(=O)[C@H](C)[C@@H](O[C@H]2C[C@@](C)(OC)[C@@H](O)[C@H](C)O2)[C@H](C)[C@@H](O[C@@H]2O[C@H](C)C[C@H](N(C)C)[C@H]2O)[C@](C)(O)C[C@@H](C)CN(C)[C@H](C)[C@@H](O)[C@]1(C)O [AZITHROMYCIN] | > 30 | > 30 | > 10 |  | > 10 | > 30 |  |  | > 10 | > 30 | > 10 | > 30 | > 30 | > 30 | > 30 | > 30 | > 30 | > 30 | > 30 | > 30 | AC50 (Thromboxane A2 receptor [16]): > 30 µM
4 | CCCCN1C[C@H](O)[C@@H](O)[C@H](O)[C@H]1CO | > 30 | > 30 | > 30 | > 30 | > 30 | > 30 | > 30 | > 30 | > 30 | > 30 | > 30 |  |  |  |  |  |  |  |  |  | 
5 | NCC(CC(=O)O)c1ccc(Cl)cc1 (stereo not given) [BACLOFEN] | > 30 | > 30 | > 10 |  | > 10 | > 10 |  |  | > 30 | > 30 | > 30 | > 30 | > 30 | > 30 | > 30 | > 30 | > 30 | > 30 | > 30 | > 30 | AC50 (Thromboxane A2 receptor [16]): > 30 µM
6 | CC1(C)NC(=O)N(c2ccc([N+](=O)[O-])c(C(F)(F)F)c2)C1=O [NILUTAMIDE] |  | > 30 | > 30 | > 30 | > 30 | > 30 | > 30 | > 30 | > 30 | > 30 | > 30 | > 30 | > 3 | > 30 | > 30 | > 30 | > 30 | > 30 | > 30 | > 30 | AC50 [17]: > 30 µM; AC50 (Thromboxane A2 receptor [16]): > 3 µM
7 | CN1C(=O)CCS(=O)(=O)C1c1ccc(Cl)cc1 (stereo not given) [CHLORMEZANONE] |  | > 10 | > 10 | > 30 | > 10 | > 10 | > 10 | > 10 | > 10 | > 10 |  |  |  |  |  |  |  |  |  |  | 
8 | NS(=O)(=O)Cc1noc2ccccc12 [ZONISAMIDE] |  | > 10 | > 10 | > 10 | > 10 | > 10 | > 10 | > 10 | > 10 | > 10 | > 10 |  |  |  |  |  |  |  |  |  | 
9 | COc1ccccc1OCC(O)CN1CCN(CC(=O)Nc2c(C)cccc2C)CC1 (stereo not given) [RANOLAZINE] | > 30 | > 30 | > 30 | > 30 | > 30 | > 30 | > 30 | > 30 | 11 | > 30 | > 30 |  |  |  |  |  |  |  |  |  | 
10 | Nc1ccn([C@H]2CC[C@@H](CO)O2)c(=O)n1 [ZALCITABINE] | > 30 | > 10 | > 10 | > 10 | > 10 | > 10 | > 30 | > 10 | > 10 | > 10 |  |  |  |  |  |  |  |  |  |  | 

From ChEMBL document CHEMBL5291721, “A preclinical secondary pharmacology resource illuminates target-adverse drug reaction associations of marketed drugs” (Nat Commun, 2023)
